Results from ChEMBL document CHEMBL1151696 (Bioorg Med Chem, 2008).
The source made the active and inactive calls. No cut-off for these calls is given here.

Tested on: Vaccinia virus
Format: functional, organism-based
Details: Orthopoxvirus vaccinia

## c1ccc(CNCC23CC4CC(CC2C4)C3)cc1
  Activity: inactive

## CN(C)CC12CC3CC(CC1C3)C2
  Activity: inactive

## Fc1ccc(CNC23CC4CC(CC2C4)C3)cc1
  Activity: inactive

## COc1cccc(CNC23CC4CC(CC2C4)C3)c1
  Activity: inactive

## CN(Cc1ccccc1)C12CC3CC(CC1C3)C2
  Activity: inactive

## CC12CC3CC1(C)CC3(N(Cc1ccccc1)Cc1ccccc1)C2
  Activity: inactive

## CN(C)CC12CC3(C)CC1CC3(C)C2
  Activity: inactive

## c1ccc(CNC23CC4CC(CC2C4)C3)cc1
  Activity: inactive

## NCC12CC3CC(CC1C3)C2
  Activity: inactive

## COc1ccc(CNC23CC4CC(CC2C4)C3)cc1
  Activity: inactive

## CC12CC3CC1(C)CC3(CN1CCCCC1)C2
  Activity: inactive

## CNCC12CC3CC(CC1C3)C2
  Activity: inactive

## CN(C)C12CC3CC(CC1C3)C2
  Activity: inactive

## CC12CC3CC1(C)CC3(N)C2
  Activity: inactive

## N=C(N)NCC12CC3CC(CC1C3)C2
  Activity: inactive

## CN(C)C12CC3(C)CC1CC3(C)C2
  Activity: inactive

## CNCC12CC3(C)CC1CC3(C)C2
  Activity: inactive

## C1CCN(C23CC4CC(CC2C4)C3)CC1
  Activity: inactive

## CC12CC3CC1(C)CC3(CNCc1ccccc1)C2
  Activity: inactive

## CC12CC3CC1(C)CC3(NCc1cccs1)C2
  Activity: inactive

## CC(N)C12CC3(C)CC1CC3(C)C2 (stereo unspecified)
  Activity: inactive

## CN(Cc1ccccc1)CC12CC3(C)CC1CC3(C)C2
  Activity: inactive

## CNC12CC3(C)CC1CC3(C)C2
  Activity: inactive

## c1csc(CNC23CC4CC(CC2C4)C3)c1
  Activity: inactive

## CC12CC3CC1(C)CC3(CN)C2
  Activity: inactive

## CC12CC3CC1(C)CC3(NCc1ccccc1)C2
  Activity: inactive

## CN(Cc1ccccc1)C12CC3(C)CC1CC3(C)C2
  Activity: inactive

## COc1ccccc1CNC12CC3CC(CC1C3)C2
  Activity: inactive

## CC12CC3CC1(C)CC3(CNC(=N)N)C2
  Activity: inactive

## CNC12CC3CC(CC1C3)C2
  Activity: inactive

## CN(Cc1ccccc1)CC12CC3CC(CC1C3)C2
  Activity: inactive
